Test results reported in the supplement of paper PMC10307832.

Key:
Assay in all cases: relative viability (nuclei count vs DMSO), 5 days (fraction); higher = more cells survive
JZL-184 = compound: C1CN(CCC1C(C2=CC3=C(C=C2)OCO3)(C4=CC5=C(C=C4)OCO5)O)C(=O)OC6=CC=C(C=C6)[N+](=O)[O-] [JZL-184]
Summary of the method: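 Lung cancer cell lines were seeded into 1536-well plates, kept overnight at 37 °C and pinned with five library-drug doses (not always all listed) spaced by √10. After 5 days, nuclei were Hoechst-stained, imaged at 4× and counted with MetaXpress. Viability is treated-well nuclei over vehicle-well nuclei, taken as a median across plates. Plates needed control CV below 25% and at least one doubling.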

JZL-184 + Dasatinib = compound: C1CN(CCC1C(C2=CC3=C(C=C2)OCO3)(C4=CC5=C(C=C4)OCO5)O)C(=O)OC6=CC=C(C=C6)[N+](=O)[O-] [JZL-184] + Cc1nc(Nc2ncc(C(=O)Nc3c(C)cccc3Cl)s2)cc(N2CCN(CCO)CC2)n1 [Dasatinib] (partner 0.075 µM)
Summary of the method: (§1)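 Lung cancer cell lines were pin-tool dosed in 1536-well plates on the day after seeding, with either a lone drug or a fixed anchor-drug dose plus five library-drug doses (not always all listed) in √10 steps. Nuclei were counted on 4× images after 5 days. Relative viability is the ratio of treated-well to vehicle-well nuclei counts, with each value a median of duplicate plates.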

JZL-184 + Lapatinib = compound: C1CN(CCC1C(C2=CC3=C(C=C2)OCO3)(C4=CC5=C(C=C4)OCO5)O)C(=O)OC6=CC=C(C=C6)[N+](=O)[O-] [JZL-184] + CS(=O)(=O)CCNCc1ccc(-c2ccc3ncnc(Nc4ccc(OCc5cccc(F)c5)c(Cl)c4)c3c2)o1 [Lapatinib] (partner 2 µM)
Summary of the method: as §1

JZL-184 + Vorinostat = compound: C1CN(CCC1C(C2=CC3=C(C=C2)OCO3)(C4=CC5=C(C=C4)OCO5)O)C(=O)OC6=CC=C(C=C6)[N+](=O)[O-] [JZL-184] + O=C(CCCCCCC(=O)Nc1ccccc1)NO [Vorinostat] (partner 1 µM)
Summary of the method: as §1

JZL-184 + Navitoclax = compound: C1CN(CCC1C(C2=CC3=C(C=C2)OCO3)(C4=CC5=C(C=C4)OCO5)O)C(=O)OC6=CC=C(C=C6)[N+](=O)[O-] [JZL-184] + CC1(C)CCC(c2ccc(Cl)cc2)=C(CN2CCN(c3ccc(C(=O)NS(=O)(=O)c4ccc(N[C@H](CCN5CCOCC5)CSc5ccccc5)c(S(=O)(=O)C(F)(F)F)c4)cc3)CC2)C1 [Navitoclax] (partner 0.5 µM)
Summary of the method: as §1

Row | Cell Line | relative viability (JZL-184; 0.04 µM) | relative viability (JZL-184; 0.4 µM) | relative viability (JZL-184; 1.265 µM) | relative viability (JZL-184; 4 µM) | relative viability (JZL-184 + Dasatinib; first compound 0.04 µM) | relative viability (JZL-184 + Dasatinib; first compound 0.4 µM) | relative viability (JZL-184 + Dasatinib; first compound 1.265 µM) | relative viability (JZL-184 + Dasatinib; first compound 4 µM) | relative viability (JZL-184 + Lapatinib; first compound 0.04 µM) | relative viability (JZL-184 + Lapatinib; first compound 0.4 µM) | relative viability (JZL-184 + Lapatinib; first compound 1.265 µM) | relative viability (JZL-184 + Lapatinib; first compound 4 µM) | relative viability (JZL-184 + Vorinostat; first compound 0.04 µM) | relative viability (JZL-184 + Vorinostat; first compound 0.4 µM) | relative viability (JZL-184 + Vorinostat; first compound 1.265 µM) | relative viability (JZL-184 + Vorinostat; first compound 4 µM) | relative viability (JZL-184 + Navitoclax; first compound 0.04 µM) | relative viability (JZL-184 + Navitoclax; first compound 0.4 µM) | relative viability (JZL-184 + Navitoclax; first compound 1.265 µM) | relative viability (JZL-184 + Navitoclax; first compound 4 µM)
1 | EKVX | 1.02 | 0.979 | 1.04 | 0.927 | 0.474 | 0.536 | 0.576 | 0.581 | 0.193 | 0.221 | 0.194 | 0.2 | 0.676 | 0.666 | 0.719 | 0.58 | 1 | 0.946 | 0.922 | 0.895
2 | A-427 | 1.09 | 0.982 | 1.12 | 0.948 | 0.785 | 0.683 | 0.71 | 0.706 | 1.17 | 1.05 | 1.01 | 1.09 | 0.871 | 0.829 | 0.83 | 0.754 | 1.02 | 0.879 | 0.962 | 0.992
3 | IA-LM | 1.31 | 0.879 | 1.03 | 1 | – | – | – | – | 1.09 | 0.555 | 0.759 | 0.629 | 0.893 | 0.988 | 0.965 | 0.989 | 0.983 | 0.711 | 0.78 | 0.794
4 | ChaGo-K-1 | 1.12 | 0.934 | 1.03 | 0.957 | 0.657 | 0.581 | 0.61 | 0.595 | – | – | – | – | 0.79 | 0.726 | 0.751 | 0.679 | 1.47 | 0.896 | 1.29 | 0.962
5 | NCI-H2342 | 0.851 | 0.878 | 1.03 | 1.02 | 0.317 | 0.293 | 0.282 | 0.368 | – | – | – | – | 0.809 | 0.676 | 0.719 | 0.813 | – | – | – | –
6 | SK-MES-1 | 1.1 | 0.982 | 1.07 | 0.939 | 0.332 | 0.486 | 0.359 | 0.445 | 0.424 | 0.434 | 0.43 | 0.415 | 1.12 | 1.05 | 1.05 | 0.955 | 1.35 | 1.14 | 1.12 | 1.17
7 | LCLC-97TM1 | 1.13 | 0.852 | 1.05 | 0.84 | 0.903 | 0.778 | 0.911 | 0.763 | 1.08 | – | 1.01 | 0.858 | 1.03 | 0.644 | 0.619 | 0.749 | 0.362 | – | 0.663 | 0.269
8 | NCI-H2170 | 1.1 | 0.948 | 1.02 | 0.928 | 0.654 | 0.476 | 0.577 | 0.598 | 0.302 | 0.252 | 0.285 | 0.275 | 0.922 | 0.754 | 0.811 | 0.737 | 0.66 | 0.589 | 0.621 | 0.547
9 | NCI-H441 | 1.14 | 0.814 | 1.02 | 0.998 | 0.584 | 0.546 | 0.606 | 0.524 | – | – | – | – | 0.793 | 1.02 | 0.784 | 0.697 | 0.802 | 0.59 | 0.796 | 0.608
10 | ABC-1 | 0.868 | 0.901 | 1.09 | 1.15 | 0.601 | 0.479 | 0.533 | 0.482 | 1.09 | 0.947 | 1.07 | 1.19 | 1.59 | 0.961 | 1.42 | 0.929 | – | – | – | –
11 | NCI-H1792 | 1.03 | 0.836 | 0.883 | 1.18 | 0.854 | 0.771 | 0.912 | 0.718 | 0.974 | 0.858 | 0.926 | 0.96 | – | – | – | – | 0.889 | 0.624 | 0.675 | 0.612
12 | HCC-44 | 1.05 | 0.923 | 1.06 | 0.983 | – | – | – | – | 1.15 | 0.93 | 1.08 | 1.07 | 1.28 | 1.05 | 1.13 | 1.06 | 1.02 | 0.953 | 0.954 | 0.876
13 | NCI-H1703 | 1.2 | 0.997 | 0.996 | 0.768 | – | – | – | – | 1.44 | 0.936 | 1.4 | 0.983 | – | – | – | – | 1.6 | 0.852 | 1.54 | 1.4
14 | NCI-H522 | 1.24 | 0.896 | 1.05 | 0.901 | 0.967 | 0.821 | 0.842 | 0.946 | – | – | – | – | 0.937 | 0.858 | 0.952 | 0.947 | – | – | – | –
15 | SW 900 | 1.08 | 0.698 | 0.958 | 0.882 | 0.543 | 0.619 | 0.661 | 0.509 | – | – | – | – | 0.496 | 0.4 | 0.587 | 0.527 | – | – | – | –
16 | NCI-H650 | 1.03 | 0.762 | 1.1 | 0.979 | 0.439 | 0.392 | 0.472 | 0.441 | 0.916 | 0.793 | 1.07 | 0.894 | 0.518 | 0.369 | 0.422 | 0.414 | – | – | – | –
17 | LCLC-103H | 0.956 | 0.988 | 1.04 | 0.986 | 0.45 | 0.557 | 0.489 | 0.392 | – | – | – | – | 0.72 | 0.752 | 0.768 | 0.734 | – | – | – | –
